Earlier results on one molecule are cited in patent US20100063004A1, “TOPICAL PHARMACEUTICAL COMPOSITION” (priority 2006, published 2010).

The test system of series [1] is lipid enveloped viruses such as herpes.
Series [2] concerns enlargement of the prostate gland. The conditions noted are these: taken orally.
Series [3] deals with herpes labialis (HSV-1). The conditions noted are these: 10% n-docosanol suspended in an aqueous system containing a non-ionic surfactant and a carrier; humans with herpes labialis (HSV-1).

For the molecule `CCCCCCCCCCCCCCCCCCCCCCO` [n-docosanol], the solubility in water result is “insoluble”. For the same molecule, the “activity in cell cultures against lipid enveloped viruses” value in series [1] is on record as “broad activity”. Also, the “therapeutic effect in enlargement of the prostate gland” value in series [2] is recorded as “therapeutically effective”. In addition, in series [3], the “mean healing time of lesions” value is listed as “shortened”.
